Laboratory results as given in article PMC10539501 (Nature Communications, 2023).
Where two headings read alike, the source gives them in different places. Non-standard residues stand in square brackets, D forms with d. Residues, ends and D or L forms follow the SMILES beside them.

How the values were obtained:
[1] = format: physicochemical
[2] = format: physicochemical; remark: listed apart in the source
[3] = biological target: T1, pepsin (Sus scrofa, UniProt P00791); conditions: pH 1.2
Method: (§1) A stability assessment of the peptides was done in simulated gastric (SGF) and intestinal (SIF) fluids and human liver microsomes. The degradation kinetics of the aliquoted samples at desired time points were analyzed through RP-HPLC.

[4] = tested on: human liver microsomes
Method: as §1

[5] = rat, in vivo
Method: (§2) All animals were housed individually in the animal facility at Anthem Biosciences Pvt. Ltd and were acclimatized for 3 days. All animals were fasted overnight before dosing, whereas access to water was provided ad libitum. Peptides were administered orally and via s.c. route and blood samples were collected at different time points through a jugular vein catheter.

[6] = in vivo; conditions: male, Wistar, rat
Method: as §2

[7] = in vitro; conditions: both, human, plasma
[8] = biological target: T1, pepsin; experiment: in vitro; conditions: simulated gastric fluid, pH 1.2
Method: as §1

[9] = in vitro; conditions: pig, simulated intestinal fluid
Method: We next assessed the stability of the macrocyclic peptides in Simulated Intestinal Fluid (SIF)[42], comprising of pancreatin, which is a mixture of several proteases produced by the exocrine cells of the porcine pancreas.
as §1

[10] = in vitro; conditions: human, microsomes
Method: as §1

[11] = in vitro; conditions: both, human, plasma; remark: listed apart in the source
Method: Blood was freshly drawn from three healthy adults, two male and one person of 26–28 year old. […] The plasma was separated by centrifugation. […] For checking metabolic stability, the required volume of plasma was pre-incubated at 37 °C prior to the experiment for 2 min, followed by spiking with the peptides. At different time points, plasma was aliquoted. The supernatant was separated and used for RP-HPLC quantification. Rapid Equilibrium Dialysis (RED) assay was performed to assess the plasma protein binding of the peptides following the supplier’s protocol.

[12] = Retention in hydrophobic C18 column by HPLC; conditions: Supplementary Fig 3d, logD7.4 vs tR
[13] = HDX of amide protons by NMR in DMSO-d6:D2O (8:2); conditions: HDX by NMR, 20% D2O in DMSO-d6
Method: (§3) As hydrogen bonding and solvation of NH groups play an important role in the permeability of macrocycles, we determined the solvent accessibility of individual amide protons in 10 and 10a–10f by hydrogen-deuterium exchange (HDX) through NMR spectroscopy (Figs. 2a–c).
(§4) Spectra were recorded on a Bruker AV 500 MHz spectrometer at 25 °C.

[14] = HDX of amide protons by NMR in CDCl3:CD3OD (8:2)
Method: as §3, §4

[15] = blood plasma, cited from earlier work
Source text: Next, we sought to assess the in vivo efficacy of the thioamidated somatostatin analogs post s.c. administration. Somatostatin, first known to inhibit the release of growth hormone, induces its biological effects by interacting with five of its G-protein-coupled receptor subtypes SSTR1-SSTR5[50]. Out of which, the SSTR2 and SSTR5 have gained significant attention due to their role in mediating the inhibition of growth hormone and antiproliferative effects of somatostatin on tumor growth. […]

[16] = 20% CD3OD in CDCl3, % remaining after 24 hours

T1 sequence (P00791 60-385): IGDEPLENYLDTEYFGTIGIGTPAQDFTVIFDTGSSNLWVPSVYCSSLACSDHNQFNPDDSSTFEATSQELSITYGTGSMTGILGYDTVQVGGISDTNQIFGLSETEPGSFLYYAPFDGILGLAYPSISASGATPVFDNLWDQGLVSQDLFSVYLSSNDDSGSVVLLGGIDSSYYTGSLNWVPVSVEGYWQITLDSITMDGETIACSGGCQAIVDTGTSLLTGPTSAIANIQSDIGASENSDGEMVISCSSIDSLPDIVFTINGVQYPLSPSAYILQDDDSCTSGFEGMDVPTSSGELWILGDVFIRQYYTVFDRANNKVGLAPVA

In the case of `CC(C)C[C@@H]1NC(=O)[C@H](Cc2ccc(O)cc2)NC(=O)[C@H]2CCCN2C(=O)[C@H](CC(C)C)NC(=O)[C@H](CC(C)C)NC(=O)[C@@H](CC(C)C)NC1=O` [compound 10, cyclo(-D-Leu^1-Leu-Leu-D-Pro-Tyr-Leu^6-)] (cyclo(LL[dP]YL[dL])), the “% solubility” value [1] is reported as 97%, the logD heptane ethylene glycol [2] is reported as 0.46 and the “Half lives (SGF) set1” value [3] is reported as 10 min. The Half lives [4] was 6.7, the “Intrinsic clearance (CLint) Avg” value ([4]; human) was 225 µL/min/mg and the “t1/2 in human blood plasma” value was 8 h. The “%F” value [5] was 0%, the “time over which the peptide is detectable in plasma” value ([5]; po, 10 mg/kg) was at most 1 h and the AUC(0-t) ([6]; iv) was 548 ng·h/mL. It also gave a Cmax ([6]; iv) of 1050 ng/mL, an MRT ([6]; iv) of 1.6 h and a Vd ([6]; iv) of 4.1 L/kg. For the same compound, the clearance ([6]; iv) was 28.4 mL/min/kg, the AUC(0-t) ([6]; po, 10 mg/kg) was 0.9 ng·h/mL and the Cmax ([6]; po, 10 mg/kg) was 3.5 ng/mL. The MRT ([6]; po, 10 mg/kg) was 0.2 h, the fraction unbound [7] was 0.51 and the half-life [8] was 0.2 h. For the same compound, the remaining at 5 min [8] was 67%, the remaining at 10 min [8] was 54% and the remaining at 20 min [8] was 40%. For the same compound, the remaining at 0.5 h [8] was 34%, the remaining at 1 h [8] was 22% and the remaining at 2 h [8] was 16%. For the same compound, the remaining at 4 h [8] was 10%, the remaining at 8 h [8] was 6% and the remaining at 12 h [8] was 2%. For the same compound, the remaining at 24 h [8] was 0%, the half-life [9] was 0.267 h and the remaining at 10 min [9] was 57.1%. It also gave a remaining at 0.5 h [9] of 39%, a remaining at 1 h [9] of 30.7% and a remaining at 2 h [9] of 13.4%. It also gave a remaining at 4 h [9] of 12%, a remaining at 8 h [9] of 7.3% and a remaining at 12 h [9] of 5.5%. It also gave a remaining at 24 h [9] of 3%, a remaining at 5 min [10] of 55% and a remaining at 10 min [10] of 40%. The remaining at 20 min [10] was 33%, the remaining at 0.5 h [10] was 29% and the remaining at 0.75 h [10] was 22%. The remaining at 1 h [10] was 14%, the half-life [11] was 8 h and the remaining at 1 h [11] was 86%. It also gave a remaining at 3 h [11] of 80%, a remaining at 5 h [11] of 67% and a remaining at 7 h [11] of 59%. For the same compound, the remaining at 9 h [11] was 43%, the remaining at 12 h [11] was 37% and the remaining at 24 h [11] was 24%. For the same compound, the remaining at 36 h [11] was 19%, the remaining at 48 h [11] was 13% and the remaining at 60 h [11] was 4%. For the same compound, the remaining at 72 h [11] was 4%, the tR [12] was 9.3 min and the “Half-life of D-Leu1 amide proton (HDX)” value [13] was 0.25 h. The “Half-life of Leu2 amide proton (HDX)” value [13] was 1.52 h, the “Half-life of Leu3 amide proton (HDX)” value [13] was 3.28 h and the “Half-life of Leu6 amide proton (HDX)” value [13] was 7.83 h. For the same compound, the “Half-life of Tyr5 amide proton (HDX)” value [13] was 0.817 h, the “Half-life of D-Leu1 amide proton (HDX)” value ([14]; 20% CD3OD in CDCl3) was 7.25 h and the “Half-life of Leu2 amide proton (HDX)” value ([14]; 20% CD3OD in CDCl3) was 2 min. For the same compound, the “Half-life of Leu3 amide proton (HDX)” value ([14]; 20% CD3OD in CDCl3) was over 24 h, the “Half-life of Leu6 amide proton (HDX)” value ([14]; 20% CD3OD in CDCl3) was over 24 h and the “Half-life of Tyr5 amide proton (HDX)” value ([14]; 20% CD3OD in CDCl3) was 1.75 h. For the same compound, the “% intact NH, Leu3” value [14, 16] was 72% and the “% intact NH, Leu6” value [14, 16] was 90%.
In the case of `C[C@H](N)C(=O)NCC(=O)N[C@H]1CSSC[C@@H](C(=O)O)NC(=O)[C@H](CO)NC(=O)[C@H]([C@@H](C)O)NC(=O)[C@H](Cc2ccccc2)NC(=O)[C@H]([C@@H](C)O)NC(=O)[C@H](CCCCN)NC(=O)[C@H](Cc2c[nH]c3ccccc23)NC(=O)[C@H](Cc2ccccc2)NC(=O)[C@H](Cc2ccccc2)NC(=O)[C@H](CC(N)=O)NC(=O)[C@H](CCCCN)NC1=O` [SRIF-14], the plasma half-life [15] is listed as 3 min and the plasma half-life ([15]; listed as native somatostatin) is listed as ~ 3 min.
